Measurements taken from patent publication US7790894B2, “Mycobacterial inhibitors” (Janssen Pharmaceutica NV, priority 2004, dated 2010).

Experiments:
M. Smegmatis ATCC607 = assay: In-vitro anti-bacterial activity against strain M. smegmatis ATCC607 (growth inhibition, Alamar Blue fluorescence); type: cell-based; conditions: strain ATCC607, 48 hours at 37° C.; for IC50: Mycolicibacterium smegmatis, ATCC607, 48 h, read-out: M. smegmatis pIC50 (converted)
Description: D.2. In-Vitro Method for Testing Compounds for Anti-Bacterial Activity Against Strain M. Smegmatis ATCC607 Flat-bottom, sterile 96-well plastic microtiter plates were filled with 180 μl of sterile deionized water, supplemented with 0.25% BSA. […] Serial five-fold dilutions (45 μl in 180 μl) were made directly in the microtiter plates from column 2 to 11 using a customised robot system (Zymark Corp. Hopkinton, Mass.). Pipette tips were changed after every 3 dilutions to minimize pipetting errors with high hydrophobic compounds. […] Approximately 250 CFU per well of bacteria inoculum, in a volume of 100 μl in 2.8× Mueller-Hinton broth medium, was added to the rows […]. The same volume of broth medium without inoculum was added to column 12 in row A to H. The cultures were incubated at 37° C. for 48 hours in a humidified 5% CO2 atmosphere (incubator with open air valve and continuous ventilation). At the end of incubation, two days after inoculation, the bacterial growth was quantitated fluorometrically. Therefore Alamar Blue (10×) was added to all wells in a volume of 20 μl and plates were incubated for another 2 hours at […] The fluorescence was read in a computer-controlled fluorometer (Cytofluor, Biosearch) at an excitation wavelength of 530 nm and an emission wavelength of 590 nm (gain 30). The % growth inhibition achieved by the compounds was calculated according to standard methods. The pIC50 was defined as the 50% inhibitory concentration for bacterial growth.

[1] = system: Mycobacterium tuberculosis (strain H37RV); assay: In-vitro testing against M. tuberculosis (growth inhibition, Resazurin fluorescence); type: cell-based; conditions: 168 h, 7 days at 37° C., bacterial growth, read-out: M. tuberculosis pIC50 (converted)

Compound | IC50 (M. Smegmatis ATCC607) [µM] | IC50 [1] [µM] | melting point [°C] | M. smegmatis pIC50 (M. Smegmatis ATCC607)
CCc1cc2cc(C(c3ccccc3)C(O)(CCN(C)C)c3cc(F)cc(F)c3)ccc2nc1Cl (single isomer, unassigned) [Compound 15] | 0.398 | 10 |  | 
CN(C)CC[C@](O)(c1cccc(F)c1)C(Cc1ccccc1)c1ccc2cc(Br)ccc2n1 (stereo partly shown) [Compound 1] | 0.631 |  | 136 | 
CN(C)CC[C@](O)(c1cccc2ccccc12)C(Cc1ccccc1)c1ccc2cc(Br)ccc2n1 (stereo partly shown) [Compound 2] | 0.316 |  | 143 | 
CN(C)CC[C@@](O)(c1cccc2ccccc12)C(Cc1ccccc1)c1ccc2cc(Br)ccc2n1 (stereo partly shown) [Compound 3] | 2 |  | 69 | 
CN(C)CC[C@@](O)(c1cccc(F)c1)C(c1ccccc1)c1ccc2cc(Br)ccc2n1 (stereo partly shown) [Compound 6] | 12.6 |  | 134 | 
CCc1cc2ccc([C@H](c3ccccc3)[C@@](O)(CCN(C)C)c3cccc4ccccc34)cc2nc1Cl [Compound 8] | 1.58 |  |  | 
CCc1cc2ccc([C@H](c3ccccc3)[C@@](O)(CCN(C)C)c3cc(F)cc(F)c3)cc2nc1Cl [Compound 9] |  |  |  | 5.8
CCc1cc2ccc([C@H](c3ccccc3)[C@@](O)(CCN(C)C)c3cc(F)cc(F)c3)cc2nc1Cl [Compound 10] | 1.26 | 7.94 |  | 
CN(C)CC[C@](O)(c1cc(F)cc(F)c1)[C@@H](c1ccccc1)c1cc(Br)cc2c(-c3ccccc3)cc(Cl)nc12 [Compound 11] | 2 |  | 220 | 
